Where a name gives a salt, the structure may show the parent alone.

The target of this test is T1, Glucokinase (Homo sapiens, UniProt P35557).
T1 construct: purchased ProteinOne Inc
T1 sequence (P35557 1-465): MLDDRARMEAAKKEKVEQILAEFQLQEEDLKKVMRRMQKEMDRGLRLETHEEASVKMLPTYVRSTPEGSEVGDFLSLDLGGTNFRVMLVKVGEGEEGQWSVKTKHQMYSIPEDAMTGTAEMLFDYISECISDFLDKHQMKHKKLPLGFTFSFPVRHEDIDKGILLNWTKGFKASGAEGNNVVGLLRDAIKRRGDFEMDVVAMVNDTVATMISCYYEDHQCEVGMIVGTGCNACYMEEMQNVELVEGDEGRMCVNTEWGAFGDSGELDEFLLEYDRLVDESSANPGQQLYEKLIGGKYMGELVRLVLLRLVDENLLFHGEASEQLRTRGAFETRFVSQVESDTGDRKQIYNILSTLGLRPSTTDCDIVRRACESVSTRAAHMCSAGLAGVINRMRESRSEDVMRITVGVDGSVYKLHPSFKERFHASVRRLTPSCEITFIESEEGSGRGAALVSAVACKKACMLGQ
As to the kind of experiment: Glucokinase activation assay (NADPH absorbance at 340 nm). The settings on record: glucokinase (ProteinOne Inc.), 5 mM D(+)-glucose, 24° C., 90 minutes. Type of test: biochemical. The protocol:
The amounts of glucokinase activation were determined by measuring the levels of NADPH (the final metabolite of glucose through glucokinase-mediated phospho-rylation) and then calculating to glucokinase activities.
Glucokinase (ProteinOne Inc.) was added, in the concentration of 100 ng/uL, to a enzyme-reaction medium (25 mM HEPES pH 7, 25 mM KCL, 1 mM MgCl, 5 mM D(+)-glucose, 1 mM ATP, 1 mM NADP, 1 mM DTT, and 2.5 u/mL G6PDH). Each compound in predetermined concentrations was added to the enzyme-reaction medium and then absorbance (First Absorbance) was measured at 340 nm of wavelength. After measuring the first absorbance, each reaction mixture was incubated at 24° C. for 90 minutes and then absorbance (Second Absorbance) was re-measured at 340 nm of wavelength. Using changes between First Absorbance and Second Absorbance, glucokinase activity was calculated. In the calculation, a maximum activity of the test compound (Emax), in comparison to the control group (no treatment of compound) was determined and then EC50 was calculated using the software for statistical analysis “Prism”, based on the activity-changes according to concentrations of the test compounds.
The amounts of glucokinase activation of the compounds of Comparative Examples 1 and 2 were determined, in accordance with the same procedures as in Test Example 1.

As a reminder, the EC50 is the concentration needed to bring the measured effect to its halfway point. Higher therefore signals weaker potency. In the case of “3-{2-[4-(2-(thiophen-2-yl)acetylamino)phenyl]ethyl}-5-(2-methoxy-(1S)-methyl-ethoxy)-N-(thiazol-2-yl)-benzamide [Example 143]”, a half-maximal response (EC50) required 284 nM. “3-[trans-2-(3-bromophenyl)vinyl]-5-(2-methoxy-(1S)-methyl-ethoxy)-N-(pyrazin-2-yl)-benzamide [Example 59]” displayed an EC50 of 377 nM.

`CC(C)/C=C\c1cc(OC(C)C)cc(C(=O)Nc2ncc(C(=O)O)s2)c1` [Comparative Example 2, reference compound] returned an EC50 of 1870 nM. Then “3-[2-(4-benzenesulfonylaminophenyl)ethyl]-5-(2-methoxy-(1S)-methyl-ethoxy)-N-(thiazol-2-yl)-benzamide [Example 144]”, with 411 nM. As for “3-[trans-2-(3-chlorophenyl)vinyl]-5-(2-methoxy-(1S)-methyl-ethoxy)-N-(1-methyl-1H-pyrazol-3-yl)-benzamide [Example 47]”, the figure is 107 nM; as for “3-[trans-2-(4-fluorophenyl)vinyl]-5-(2-methoxy-(1S)-methyl-ethoxy)-N-(5-fluorothiazol-2-yl)-benzamide [Example 23]”, 41.1 nM. Then “3-{2-[4-(3-methyl-butyrylamino)phenyl]ethyl}-5-(2-methoxy-(1S)-methyl-ethoxy)-N-(thiazol-2-yl)-benzamide [Example 134]”, with 355 nM; and “3-[2-(2,4-difluorophenyl)ethyl]-5-(2-methoxy-(1S)-methyl-ethoxy)-N-(1-methyl-1H-pyrazol-3-yl)-benzamide [Example 96]”, with 184 nM; and `COC[C@H](C)Oc1cc(/C=C/c2cccc([N+](=O)[O-])c2)cc(C(=O)Nc2ccc(C(=O)OC)cn2)c1` [Example 63, 3-[trans-2-(3-nitrophenyl)vinyl]-5-(2-methoxy-(1S)-methyl-ethoxy)-N-(nicotinic acid-3-methyl ester-6-yl)-benzamide], with 403 nM. Molecule `COC[C@H](C)Oc1cc(CCc2cccc(N)c2)cc(C(=O)Nc2nccs2)c1` [Example 111, 3-[2-(3-aminophenyl)ethyl]-5-(2-methoxy-(1S)-methyl-ethoxy)-N-(thiazol-2-yl)-benzamide hydrochloride] showed an EC50 of 54.7 nM. As for “3-[trans-2-(2,3-difluorophenyl)vinyl]-5-(2-methoxy-(1S)-methyl-ethoxy)-N-(pyrazin-2-yl)-benzamide [Example 55]”, the figure is 346 nM; as for “3-[2-(2,3-dimethoxyphenyl)ethyl]-5-(2-methoxy-(1S)-methyl-ethoxy)-N-(1-methyl-1H-pyrazol-3-yl)-benzamide [Example 103]”, 448 nM; as for “3-{2-[3-(phenylacetylamino)phenyl]ethyl}-5-(2-methoxy-(1S)-methyl-ethoxy)-N-(thiazol-2-yl)-benzamide [Example 123]”, 225 nM.

In the case of `COC[C@H](C)Oc1cc(CCc2cccc(NC(=O)CC(=O)O)c2)cc(C(=O)Nc2nccs2)c1` [Example 147, 3-[2-(3-malonamic acid phenyl)ethyl]-5-(2-methoxy-(1S)-methyl-ethoxy)-N-(thiazol-2-yl)-benzamide], the half-maximal effective concentration (EC50) worked out at 222 nM. Then `COc1cccc(/C=C/c2cc(OCC(C)C)cc(C(=O)Nc3nccs3)c2)c1OC` [Example 5, 3-[trans-2-(2,3-dimethoxyphenyl)vinyl]-5-isobutoxy-N-(thiazol-2-yl)-benzamide], with 173 nM. In turn, “3-[trans-2-(2-bromophenyl)vinyl]-5-(2-methoxy-(1S)-methyl-ethoxy)-N-(1-methyl-1H-pyrazol-3-yl)-benzamide [Example 43]” registered a 50% effective concentration (EC50) of 322 nM. As for “3-[trans-2-(2,4-difluorophenyl)vinyl]-5-(2-methoxy-(1S)-methyl-ethoxy)-N-(1-methyl-1H-pyrazol-3-yl)-benzamide [Example 35]”, the figure is 109 nM; as for “3-[2-(4-methoxyphenyl)ethyl]-5-(2-methoxy-(1S)-methyl-ethoxy)-N-(1-methyl-1H-pyrazol-3-yl)-benzamide [Example 100]”, 314 nM; as for “3-[2-(4-butyrylaminophenyl)ethyl]-5-(2-methoxy-(1S)-methyl-ethoxy)-N-(thiazol-2-yl)-benzamide [Example 133]”, 322 nM. “3-[trans-2-(2,6-dimethoxyphenyl)vinyl]-5-(2-methoxy-(1S)-methyl-ethoxy)-N-(5-fluorothiazol-2-yl)-benzamide [Example 29]” displayed an EC50 of 128 nM. Then `COC[C@H](C)Oc1cc(/C=C/c2cccc(F)c2F)cc(C(=O)Nc2ccc(C(=O)OC)cn2)c1` [Example 66, 3-[trans-2-(2,3-difluorophenyl)vinyl]-5-(2-methoxy-(1S)-methyl-ethoxy)-N-(nicotinic acid-3-methyl ester-6-yl)-benzamide], with 387 nM. Then “3-{2-[4-(4-fluorobenzoylamino)phenyl]ethyl}-5-(2-methoxy-(1S)-methyl-ethoxy)-N-(t hiazol-2-yl)-benzamide [Example 139]”, with 371 nM; and “3-{2-[3-(3-methyl-butyrylamino)phenyl]ethyl}-5-(2-methoxy-(1S)-methyl-ethoxy)-N-(thiazol-2-yl)-benzamide [Example 120]”, with 473 nM. Then “3-[trans-2-(4-nitrophenyl)vinyl]-5-(2-methoxy-(1S)-methyl-ethoxy)-N-(5-fluorothiazol-2-yl)-benzamide [Example 21]”, with 336 nM. Turning to `COC[C@H](C)Oc1cc(/C=C/c2cccc(F)c2F)cc(C(=O)Nc2ccc(C(=O)O)cn2)c1` [Example 78, 3-[trans-2-(2,3-difluorophenyl)vinyl]-5-(2-methoxy-(1S)-methyl-ethoxy)-N-(nicotinic acid-6-yl)-benzamide], the EC50 came to 123 nM.

`CCOC(=O)Nc1ccc(CCc2cc(O[C@@H](C)COC)cc(C(=O)Nc3nccs3)c2)cc1` [Example 136, 3-{2-[4-(carbamic acid ethyl ester)phenyl]ethyl}-5-(2-methoxy-(1S)-methyl-ethoxy)-N-(thiazol-2-yl)-benzamide] showed a concentration giving a half-maximal response (EC50) of 270 nM. In turn, `CCOC(=O)CC(=O)Nc1cccc(CCc2cc(O[C@@H](C)COC)cc(C(=O)Nc3nccs3)c2)c1` [Example 121, 3-{2-[3-(malonamic acid ethyl ester)phenyl]ethyl}-5-(2-methoxy-(1S)-methyl-ethoxy)-N-(thiazol-2-yl)-benzamide] came in with an EC50 of 170 nM. As for “3-[2-(2,5-difluorophenyl)ethyl]-5-(2-methoxy-(1S)-methyl-ethoxy)-N-(thiazol-2-yl)-benzamide [Example 86]”, the figure is 36.6 nM; as for `COC[C@H](C)Oc1cc(/C=C/c2c(F)cccc2F)cc(C(=O)Nc2ccc(C(=O)OC)cn2)c1` [Example 69, 3-[trans-2-(2,6-difluorophenyl)vinyl]-5-(2-methoxy-(1S)-methyl-ethoxy)-N-(nicotinic acid-3-methyl ester-6-yl)-benzamide], 146 nM. As for “3-[trans-2-(2,4-difluorophenyl)vinyl]-5-(2-methoxy-(1S)-methyl-ethoxy)-N-(thiazol-2-yl)-benzamide [Example 10]”, the figure is 55.2 nM; as for “3-[2-(2,3-dimethoxyphenyl)ethyl]-5-(2-methoxy-(1S)-methyl-ethoxy)-N-(thiazol-2-yl)-benzamide [Example 90]”, 322 nM.

`COC[C@H](C)Oc1cc(CCc2ccccc2NC(=O)Cc2cccs2)cc(C(=O)Nc2nccs2)c1` [Example 114]: the response was half-maximal at 275 nM (EC50).

`COC[C@H](C)Oc1cc(CCc2cccc(N)c2)cc(C(=O)Nc2ccn(C)n2)c1` [Example 97, 3-[2-(3-aminophenyl)ethyl]-5-(2-methoxy-(1S)-methyl-ethoxy)-N-(1-methyl-1-pyrazol-3-yl)-benzamide] returned a concentration giving a half-maximal response (EC50) of 415 nM. As for “3-[trans-2-(3-chlorophenyl)vinyl]-5-(2-methoxy-(1S)-methyl-ethoxy)-N-(pyrazin-2-yl)-benzamide [Example 54]”, the figure is 382 nM. Then “3-[trans-2-(3,5-dimethoxyphenyl)vinyl]-5-(2-methoxy-(1S)-methyl-ethoxy)-N-(5-fluorothiazol-2-yl)-benzamide [Example 31]”, with 47.3 nM; and “3-{2-[4-(phenylacetylamino)phenyl]ethyl}-5-(2-methoxy-(1S)-methyl-ethoxy)-N-(thiazol-2-yl)-benzamide [Example 137]”, with 270 nM.

Molecule “3-[2-(3-chlorophenyl)ethyl]-5-(2-methoxy-(1S)-methyl-ethoxy)-N-(1-methyl-1H-pyrazol-3-yl)-benzamide [Example 102]” returned an EC50 of 264 nM.
